This is an account of results in patent US20260078130A1, “NAMPT MODULATORS, PREPARATIONS, AND USES THEREOF” (SIRONAX LTD., priority 2022, published 2026).

Like-named read-outs stand apart in the source and are kept apart here.

Assay [1] has as its system endogenous NAMPT in U2OS cells. Kind of assay: Cellular NAD+ modulation assay (NAD/NADH-Glo, U2OS cells). Type of assay: cell-based. The note with it: Homo sapiens; for maximal fold induction: read-out: Cellular Emax. An outline of the steps: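 NAD/NADH-Glo luminescence quantified NAD+ after acid treatment (60 °C, 15 min) and neutralization of DTAB lysates. Beforehand, U2OS cells seeded 16 h earlier received compound concentration series for 24 h at 37 °C. Values given as half-maximal activation concentration (EC50) and maximal fold change versus DMSO (Emax).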

The target of assay [2] is T1, human enzyme NAMPT (full length) (Homo sapiens, UniProt P43490).
T1 construct: human enzyme NAMPT (full length)
T1 sequence (P43490 whole entry): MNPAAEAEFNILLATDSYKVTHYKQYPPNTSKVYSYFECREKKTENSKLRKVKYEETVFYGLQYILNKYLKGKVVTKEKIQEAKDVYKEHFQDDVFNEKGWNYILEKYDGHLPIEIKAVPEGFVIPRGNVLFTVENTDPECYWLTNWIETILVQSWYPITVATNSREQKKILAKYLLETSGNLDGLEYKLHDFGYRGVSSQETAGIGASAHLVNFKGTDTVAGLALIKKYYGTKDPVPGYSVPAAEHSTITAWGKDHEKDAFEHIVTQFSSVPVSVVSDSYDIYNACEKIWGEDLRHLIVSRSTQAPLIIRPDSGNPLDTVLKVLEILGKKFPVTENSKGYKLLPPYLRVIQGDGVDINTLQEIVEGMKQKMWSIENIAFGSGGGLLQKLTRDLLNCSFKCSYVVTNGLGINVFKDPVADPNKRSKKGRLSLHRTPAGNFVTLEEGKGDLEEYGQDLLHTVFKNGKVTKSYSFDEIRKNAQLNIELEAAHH
Kind of assay: NMN fluorescence biochemical assay (stimulation of NMN synthesis by NAMPT). The note with it: for EC50: concentration giving half-maximal activation, read-out: Enzymatic EC50; for Enzymatic Emax: fold change of maximal activation compared to DMSO. An outline of the steps:
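Full-length human NAMPT (100 nM) was preincubated 15 min at 37 °C with compound in 50 mM Tris-HCl pH 7.5, 10 mM MgCl2, 2 mM DTT, then reacted 1 h at 37 °C with 50 μM NAM, 100 μM PRPP, 4 mM ATP (stated solution concentrations). NMN was derivatised with acetophenone/KOH then formic acid and read at Ex/Em 382/445 nm; EC50 and Emax (fold over DMSO) reported.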

Setting [3] is: 24 hours incubation, cellular NAD+.
[4] abbreviates: NMN fluorescence assay, purified human NAMPT 100 nM.
Where [5] appears, read: 24 hours incubation with compound.
[6] abbreviates: NMN synthesis by purified human NAMPT (100 nM).

Broadly, the EC50 is the concentration giving half of the maximal effect. In the case of `Cn1nc(C#N)c(Cl)c1CC1c2ccccc2C(=O)N1CC1CC2(CNC(=O)O2)C1` (stereo not shown) [Compound 495, 4-chloro-1-methyl-5-((3-oxo-2-((6-oxo-5-oxa-7-azaspiro[3.4]octan-2-yl)methyl)isoindolin-1-yl)methyl)-1H-pyrazole-3-carbonitrile], the EC50 was under 0.5 µM in assay [1] (setting [3]) and 0.5 to 5 µM in assay [2] (setting [4]). In assay [1] (setting [3]), the maximal fold induction was over 1.5. The “Enzymatic Emax” value in assay [2] is on record as “B (3≥B>2)”.

For `Cn1c(CC2c3ccccc3C(=O)N2Cc2ccc3[nH]nnc3c2)c(Cl)ccc1=O` (stereo not shown) [Compound 381, 2-((1H-benzo[d][1,2,3]triazol-5-yl)methyl)-3-((3-chloro-1-methyl-6-oxo-1,6-dihydropyridin-2-yl)methyl)isoindolin-1-one], in assay [1] (setting [3]), the EC50 was under 0.5 µM and the maximal fold induction is over 1.5. Also, the EC50 in assay [2] (setting [4]) is under 0.5 µM. Besides, the “Enzymatic Emax” value in assay [2] was “B (3≥B>2)”.

Turning to `Cn1ncc(Cl)c1CC1c2cc(OC(F)F)ccc2C(=O)N1Cc1ccc2[nH]nnc2c1` (stereo not shown) [Compound 421, 2-((1H-benzo[d][1,2,3]triazol-5-yl)methyl)-3-((4-chloro-1-methyl-1H-pyrazol-5-yl)methyl)-5-(difluoromethoxy)isoindolin-1-one], in assay [1] (setting [3]), the EC50 is under 0.5 µM and the maximal fold induction was over 1.5. Moreover, the concentration for a half-maximal effect (EC50) in assay [2] (setting [4]) is under 0.5 µM. The “Enzymatic Emax” value in assay [2] was “B (3≥B>2)”.

For the molecule `O=C1c2ccccc2C(Cc2ccccn2)N1Cc1ccc2[nH]c(=O)oc2c1` (stereo not shown) [Compound 129, 6-((1-oxo-3-(pyridin-2-ylmethyl)isoindolin-2-yl)methyl)benzo[d]oxazol-2(3H)-one], in assay [1] (setting [5]), the EC50 was in the range of 0.5 to 5 µM and the maximal fold induction is over 1.5. Also, the EC50 in assay [2] (setting [6]) fell in the range of 0.5 to 5 µM. In addition, in assay [2], the “Enzymatic Emax” value was “A (A>3)”.

For `O=C1c2ccccc2C(Cc2ncccc2Br)N1Cc1ccc2[nH]nnc2c1F` (stereo not shown) [Compound 330, 3-((3-bromopyridin-2-yl)methyl)-2-((4-fluoro-1H-benzo[d][1,2,3]triazol-5-yl)methyl)isoindolin-1-one], in assay [1] (setting [3]), the EC50 lay in the range of 0.5 to 5 µM and the maximal fold induction was over 1.5. Further, the EC50 in assay [2] (setting [4]) is under 0.5 µM. The “Enzymatic Emax” value in assay [2] is reported as “A (A>3)”.

Turning to `COC1CN(c2ccc3c(c2)C(C)N(Cc2ccc4[nH]c(=O)oc4c2)C3=O)C1` (stereo not shown) [Compound 128, 6-((5-(3-methoxyazetidin-1-yl)-3-methyl-1-oxoisoindolin-2-yl)methyl)benzo[d]oxazol-2(3H)-one], the EC50 in assay [1] (setting [5]) is 0.5 to 5 µM; in assay [2] (setting [6]) it was at least 5 µM. The maximal fold induction in assay [1] (setting [5]) is over 1.5. Further, the “Enzymatic Emax” value in assay [2] is reported as “B (3≥B>2)”.

Consider `O=C1c2ccc(N3CCOCC3)cc2C(Cc2ccccc2)N1Cc1ccc2[nH]c(=O)oc2c1` (stereo not shown) [Compound 97, 6-((3-benzyl-5-morpholino-1-oxoisoindolin-2-yl)methyl)benzo[d]oxazol-2(3H)-one], for which, in assay [1] (setting [5]), the EC50 is 0.5 to 5 µM and the maximal fold induction was over 1.5. Moreover, the 50% effective concentration (EC50) in assay [2] (setting [6]) was 0.5 to 5 µM. Also, the “Enzymatic Emax” value in assay [2] is recorded as “A (A>3)”.

For `N#CCc1ccccc1CC1c2ccccc2C(=O)N1Cc1ccc2[nH]c(=O)oc2c1` (stereo not shown) [Compound 173, 2-(2-((3-oxo-2-((2-oxo-2,3-dihydrobenzo[d]oxazol-6-yl)methyl)isoindolin-1-yl)methyl)phenyl)acetonitrile], in assay [1] (setting [5]), the EC50 lay in the range of 0.5 to 5 µM and the maximal fold induction is over 1.5. Further, the EC50 in assay [2] (setting [6]) is 0.5 to 5 µM. Further, the “Enzymatic Emax” value in assay [2] was “B (3≥B>2)”.

For the molecule `CC1c2cc(CN3CCOCC3)ccc2C(=O)N1Cc1ccc2[nH]c(=O)oc2c1` (stereo not shown) [Compound 143, 6-((3-methyl-5-(morpholinomethyl)-1-oxoisoindolin-2-yl)methyl)benzo[d]oxazol-2(3H)-one], the 50% effective concentration (EC50) in assay [1] (setting [5]) was 0.5 to 5 µM; in assay [2] (setting [6]), at least 5 µM. The maximal fold induction in assay [1] (setting [5]) was over 1.5. The “Enzymatic Emax” value in assay [2] is listed as “A (A>3)”.

As to `C[C@H]1c2cc(C#N)ccc2C(=O)N1Cc1ccc2[nH]c(=O)oc2c1` (single isomer, unassigned) [Compound 186], in assay [1] (setting [5]), the EC50 fell in the range of 0.5 to 5 µM and the maximal fold induction is over 1.5. Also, the EC50 in assay [2] (setting [6]) was at least 5 µM. For the same molecule, in assay [2], the “Enzymatic Emax” value is “B (3≥B>2)”.

Regarding `CCc1cccnc1CC1c2ccccc2C(=O)N1Cc1ccc2[nH]c(=O)oc2c1` (stereo not shown) [Compound 182, 6-((1-((3-ethylpyridin-2-yl)methyl)-3-oxoisoindolin-2-yl)methyl)benzo[d]oxazol-2(3H)-one], in assay [1] (setting [5]), the EC50 fell in the range of 0.5 to 5 µM and the maximal fold induction is over 1.5. Moreover, the EC50 in assay [2] (setting [6]) lay within 0.5 to 5 µM. Besides, the “Enzymatic Emax” value in assay [2] is reported as “A (A>3)”.

Consider `Cn1ncc(Cl)c1CC1c2ccccc2C(=O)N1Cc1c[nH]c(=S)s1` (stereo not shown) [Compound 631, 3-((4-chloro-1-methyl-1H-pyrazol-5-yl)methyl)-2-((2-thioxo-2,3-dihydrothiazol-5-yl)methyl)isoindolin-1-one], for which, in assay [1] (setting [3]), the EC50 fell in the range of 0.5 to 5 µM and the maximal fold induction is over 1.5. The EC50 in assay [2] (setting [4]) was at least 5 µM. Moreover, the “Enzymatic Emax” value in assay [2] is “A (A>3)”.

Consider `Cn1ncc(Cl)c1CC1c2ccccc2C(=O)N1Cc1cnc(N)s1` (stereo not shown) [Compound 628, 2-((2-aminothiazol-5-yl)methyl)-3-((4-chloro-1-methyl-1H-pyrazol-5-yl)methyl)isoindolin-1-one], for which, in assay [1] (setting [3]), the concentration for a half-maximal effect (EC50) was under 0.5 µM and the maximal fold induction fell in the range of 1.2 to 1.5. In assay [2] (setting [4]), the EC50 was at least 5 µM. The “Enzymatic Emax” value in assay [2] is on record as “B (3≥B>2)”.

As to `Cc1ocnc1CC1c2ccccc2C(=O)N1Cc1ccc2[nH]c(=O)oc2c1` (stereo not shown) [Compound 231, 6-((1-((5-methyloxazol-4-yl)methyl)-3-oxoisoindolin-2-yl)methyl)benzo[d]oxazol-2(3H)-one], in assay [1] (setting [5]), the EC50 lay in the range of 0.5 to 5 µM and the maximal fold induction is over 1.5. The EC50 in assay [2] (setting [6]) is at least 5 µM. The “Enzymatic Emax” value in assay [2] is “A (A>3)”.

For the molecule `O=C1c2ccc(CN3CCOCC3)cc2C(Cc2ccccc2)N1Cc1ccc2[nH]c(=O)oc2c1` (stereo not shown) [Compound 123, 6-((3-benzyl-5-(morpholinomethyl)-1-oxoisoindolin-2-yl)methyl)benzo[d]oxazol-2(3H)-one], in assay [1] (setting [5]), the EC50 lay within 0.5 to 5 µM and the maximal fold induction was over 1.5. Also, the EC50 in assay [2] (setting [6]) was in the range of 0.5 to 5 µM. For the same molecule, in assay [2], the “Enzymatic Emax” value was “A (A>3)”.

`Cc1ccnc(C#N)c1CC1c2cccc(F)c2C(=O)N1CC1CC2(CNC(=O)O2)C1` (stereo not shown) [Compound 428, 3-((4-fluoro-3-oxo-2-((6-oxo-5-oxa-7-azaspiro[3.4]octan-2-yl)methyl)isoindolin-1-yl)methyl)-4-methylpicolinonitrile]: the EC50 is under 0.5 µM in assay [1] (setting [3]) and 0.5 to 5 µM in assay [2] (setting [4]). Further, in assay [1] (setting [3]), the maximal fold induction was over 1.5. In assay [2], the “Enzymatic Emax” value is “B (3≥B>2)”.

For `Cn1ncc(Cl)c1CC1c2cc(Cl)ccc2C(=O)N1CC1CC2(CNC(=O)O2)C1` (stereo not shown) [Compound 474, 2-((5-chloro-3-((4-chloro-1-methyl-1H-pyrazol-5-yl)methyl)-1-oxoisoindolin-2-yl)methyl)-5-oxa-7-azaspiro[3.4]octan-6-one], in assay [1] (setting [3]), the EC50 was under 0.5 µM and the maximal fold induction was over 1.5. Moreover, in assay [2] (setting [4]), the EC50 was 0.5 to 5 µM. In assay [2], the “Enzymatic Emax” value was “B (3≥B>2)”.

`COc1ccc2c(c1)C(C)N(Cc1ccc3[nH]c(=O)oc3c1)C2=O` (single isomer, unassigned) [Compound 243]: in assay [1] (setting [5]), the EC50 is 0.5 to 5 µM and the maximal fold induction was over 1.5. Further, in assay [2] (setting [6]), the EC50 was at least 5 µM. Also, in assay [2], the “Enzymatic Emax” value is recorded as “A (A>3)”.

For `COc1ccc(CN2C(=O)c3ccc(C4CC4)cc3C2Cc2c(C)ncnc2C#N)cn1` (stereo not shown) [Compound 640, 5-((6-cyclopropyl-2-((6-methoxypyridin-3-yl)methyl)-3-oxoisoindolin-1-yl)methyl)-6-methylpyrimidine-4-carbonitrile], in assay [1] (setting [3]), the EC50 lay within 0.5 to 5 µM and the maximal fold induction lay in the range of 1.2 to 1.5. Further, in assay [2] (setting [4]), the EC50 was at least 5 µM. For the same molecule, the “Enzymatic Emax” value in assay [2] is on record as “A (A>3)”.

Turning to `O=C1NCC2(CC(CN3C(=O)c4ccccc4C3Cc3nnsc3Cl)C2)O1` (stereo not shown) [Compound 538, 2-((1-((5-chloro-1,2,3-thiadiazol-4-yl)methyl)-3-oxoisoindolin-2-yl)methyl)-5-oxa-7-azaspiro[3.4]octan-6-one], in assay [1] (setting [3]), the EC50 was 0.5 to 5 µM and the maximal fold induction is over 1.5. In addition, in assay [2] (setting [4]), the EC50 is at least 5 µM. Further, the “Enzymatic Emax” value in assay [2] is reported as “C (2≥C)”.

For `Cn1ncc(Cl)c1CC1c2ccccc2C(=O)N1Cc1c[nH]nn1` (stereo not shown) [Compound 637, 2-((1H-1,2,3-triazol-4-yl)methyl)-3-((4-chloro-1-methyl-1H-pyrazol-5-yl)methyl)isoindolin-1-one], the EC50 in assay [1] (setting [3]) is under 0.5 µM; in assay [2] (setting [4]), at least 5 µM. Besides, the maximal fold induction in assay [1] (setting [3]) lay in the range of 1.2 to 1.5. Further, the “Enzymatic Emax” value in assay [2] was “B (3≥B>2)”.

Regarding `Cn1ncc(Cl)c1CC1c2cc(C#N)ccc2C(=O)N1CC1CC2(CNC(=O)O2)C1` (stereo not shown) [Compound 464, 3-((4-chloro-1-methyl-1H-pyrazol-5-yl)methyl)-1-oxo-2-((6-oxo-5-oxa-7-azaspiro[3.4]octan-2-yl)methyl)isoindoline-5-carbonitrile], in assay [1] (setting [3]), the half-maximal effective concentration (EC50) lay within 0.5 to 5 µM and the maximal fold induction is over 1.5. Moreover, the 50% effective concentration (EC50) in assay [2] (setting [4]) lay in the range of 0.5 to 5 µM. In assay [2], the “Enzymatic Emax” value is recorded as “B (3≥B>2)”.
